Laboratory results taken from patent US12691070B2, “Cationic lipids and preparation method thereof” (RiboX Therapeutics HK Limited, priority 2023, dated 2026).

Experiments:
[1] = LNP size and polydispersity index (PDI) by dynamic light scattering; type: physicochemical; conditions: for Size: in nm (unit assumed)
Method in brief: (§1)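 LNPs of ionizable lipid/DSPC/cholesterol/DMG-PEG 2000 (50:10:38.5:1.5) made by microfluidic mixing of luciferase circRNA or mRNA in pH 4.5 acetate with lipids in ethanol (3:1, 12 ml/min), ionizable lipid:nucleotide 15 or 6, then dialyzed against PBS. Size, PDI (DLS) and zeta potential on Zetasizer; encapsulation by Ribogreen ± Triton X-100.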

[2] = LNP zeta potential (Zetasizer); type: physicochemical
Method in brief: as §1

[3] = RNA encapsulation efficacy by Quant-IT Ribogreen kit; type: physicochemical; conditions: for Encapsulation Efficiency %: LNP with cirRNA (SEQ ID NO: 1); for Encapsulation Efficiency: LNP with mRNA (SEQ ID NO: 2)
Method in brief: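 Dynamic light scattering and zeta potential measurements were run on PBS-dialyzed LNPs, which had been formed by microfluidic mixing at 12 ml/min with final lipid at 1.5 mM to 6 mM. RNA content and percent encapsulation were determined by Ribogreen with and without Triton X-100.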

Hep G2 cells [4] = test: In vitro expression of firefly-luciferase, Hep G2; type: cell-based
Method in brief: (§2)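 First, cells were dosed with RNA lipid nanoparticles encoding firefly luciferase (100 ng/mL). Second, at 72 h they were washed and lysed. Third, lysate luciferase activity was read with a luminometer.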

RAW 264.7 cells [5] = test: In vitro expression of firefly-luciferase, RAW 264.7; type: cell-based
Method in brief: as §2

Hep G2 cells [6] = test: In vitro toxicity (CellTiter-Glo cell viability), Hep G2; type: cell-based;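 also: percent of untreated cells luminescence signal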
Method in brief: (§3)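 Cells were transfected with RNA-LNPs at 1 μg/mL and, 72 hours later, viability was measured by CellTiter-Glo luminescence. Values are cell viability calculated from the luminescence signal.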

RAW 264.7 cells [7] = test: In vitro toxicity (CellTiter-Glo cell viability), RAW 264.7; type: cell-based;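 also: percent of untreated cells luminescence signal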
Method in brief: as §3

BALB/C mice [8] = test: In vivo expression, whole-body luminescence (IVIS)
Procedure: 6-8 week old, female BALB/C mice were injected with 0.05 mg*kg-1 of RNA-LNPs encoding for firefly-luciferase by intravenous injection. At 6 hours post injection, animals were intraperitoneally injected with 15 mg/ml of Luciferin substrate and whole-body luminescence was determined by a bioluminescent in vivo imaging system (IVIS).

MCP-I = MCP-I cytokine elevation in serum; type: in vivo; conditions: cirRNA (SEQ ID NO: 1) LNPs, mice
Procedure: 6-8 week old, female BALB/C mice were injected with 0.5 mg*kg-1 of RNA LNPs by intravenous injection. At 2 and 24 hours post injection, animals were bled and sera concentrations of MCP-I were determined by an immunoassay (Luminex).

[9] = test system: Alanine Aminotransferase (ALT); test: Liver enzyme elevation in serum, ALT; type: in vivo; conditions: cirRNA (SEQ ID NO: 1) LNPs, BALB/C mice, intravenous 0.5 MPK
Procedure: (§4) 6-8 week old, female BALB/C mice were injected with 0.5 mg*kg-1 of RNA LNPs by intravenous injection. At 2 and 24 hours post injection, animals were bled and sera concentrations of Alanine Aminotransferase (ALT) and Aspartate Aminotransferase (AST) were determined by a blood chemistry analyzer.

[10] = test system: Aspartate Aminotransferase (AST); test: Liver enzyme elevation in serum, AST; type: in vivo; conditions: cirRNA (SEQ ID NO: 1) LNPs, BALB/C mice, intravenous 0.5 MPK
Procedure: as §4

BALB/C mice [11] = test: Local tolerance determination by footpad injection; type: in vivo; conditions: cirRNA (SEQ ID NO: 1) LNP, 0.175 mg*kg-1 subcutaneous into the footpad, 24 hours post minus prior
Procedure: 6-8 week old, female BALB/C mice were injected with 0.175 mg*kg-1 RNA LNPs by subcutaneous injection into the footpad. Prior to, and 24 hours post injections, injected footpad thickness was determined by a caliper.

[12] = cirRNA (SEQ ID NO: 1) LNPs, firefly-luciferase luminescence, Hep G2 cells
[13] = mRNA (SEQ ID NO: 2) LNP, 100 ng/mL, 72 hours post transfection, luciferase activity
[14] = cirRNA (SEQ ID NO: 1) LNPs, firefly-luciferase luminescence, RAW 264.7 cells
[15] = cirRNA (SEQ ID NO: 1) LNPs, Hep G2 cells
[16] = mRNA (SEQ ID NO: 2) LNP, 1 μg/mL, 72 hours post transfection
[17] = cirRNA (SEQ ID NO: 1) LNPs, RAW 264.7 cells
[18] = cirRNA (SEQ ID NO: 1) LNPs, BALB/C mice
[19] = mRNA (SEQ ID NO: 2) LNP, 0.05 mg*kg-1 intravenous, 6 hours post injection

Compound	PDI ([1]; LNP with cirRNA (SEQ ID NO: 1))	Size ([1]; LNP with cirRNA (SEQ ID NO: 1))	PDI ([1]; LNP with mRNA (SEQ ID NO: 2))	Size ([1]; LNP with mRNA (SEQ ID NO: 2))	Zeta (mV) ([2]; LNP with cirRNA (SEQ ID NO: 1))	Zeta (mV) ([2]; LNP with mRNA (SEQ ID NO: 2))	Encapsulation Efficiency % [3]	Encapsulation Efficiency [3]	In vitro Expression HepG2 (Hep G2 cells [4]; [12])	In vitro Expression HepG2 (Hep G2 cells [4]; [13])	In vitro Expression RAW (RAW 264.7 cells [5]; [14])	In vitro Expression RAW (RAW 264.7 cells [5]; [13])	In vitro Viability HepG2 (Hep G2 cells [6]; [15])	In vitro Viability HepG2 (Hep G2 cells [6]; [16])	In vitro Viability RAW (RAW 264.7 cells [7]; [17])	In vitro Viability RAW (RAW 264.7 cells [7]; [16])	In vivo Expression (Whole Body) (BALB/C mice [8]; [18])	In vivo Expression (Whole Body) (BALB/C mice [8]; [19])	MCP-I in Sera 2 hours After 0.5 MPK Injection (MCP-I)	MCP-I in Sera 24 hours After 0.5 MPK Injection (MCP-I)	also measured
CCCCCCCCC(CCCCCC)C(=O)OCCCCCCCCN(CCCCCCCCOC(=O)C(CCCCCC)CCCCCCCC)CCCOC(=O)NCCN1CCCCCC1 (stereo not drawn) [Lipid 383]	0.1744	90.41	0.1802	94.23	−0.4606 mV	−13.05 mV	95%	86.72%	6.03E+06	3.97E+01	2.93E+06	2.14E+06	97%	94%	89%	94%	4.66E+08	2.01E+08	5759.00 pg/mL	2458.33 pg/mL	ALT in Sera (IU/L) 2 hours After 0.5 MPK Injection [9]: 99.33 IU/L; ALT in Sera (IU/L) 24 hours After 0.5 MPK Injection [9]: 116.00 IU/L; AST in Sera (IU/L) 2 hours After 0.5 MPK Injection [10]: 245.00 IU/L; AST in Sera (IU/L) 24 hours After 0.5 MPK Injection [10]: 354.67 IU/L; Footpad Thickness (24 h−0 h, mm) (BALB/C mice [11]): 0.60 mm
CCCCCCCCCCCOC(=O)CCCCCN(CCCCCCCC(=O)OC(CCCCCCCC)CCCCCCCC)CCOC(=O)NCCN1CCCCC1 [Lipid 165]	0.05	90.53	0.1265	98.24	−1.76 mV	−0.3264 mV	91%	86.43%	7.20E+05	3.27E+06	5.29E+04	6.06E+05	94%	93%	88%	101%	1.11E+08	1.63E+08	127.19 pg/mL	113.67 pg/mL	ALT in Sera (IU/L) 2 hours After 0.5 MPK Injection [9]: 63.90 IU/L; ALT in Sera (IU/L) 24 hours After 0.5 MPK Injection [9]: 61.47 IU/L; AST in Sera (IU/L) 2 hours After 0.5 MPK Injection [10]: 128.43 IU/L; AST in Sera (IU/L) 24 hours After 0.5 MPK Injection [10]: 99.03 IU/L; Footpad Thickness (24 h−0 h, mm) (BALB/C mice [11]): 0.32 mm
CCCCCCCCC(CCCCCC)C(=O)OCCCCCCCCN(CCCCCCCCOC(=O)C(CCCCCC)CCCCCCCC)CCCOC(=O)NCCN(C)C (stereo not drawn) [Lipid 374]	0.1683	105.2	0.06656	88.86	3.631 mV	3.895 mV	96%	85.44%	1.89E+07	3.70E+07	2.34E+06	5.38E+05	70%	57%	84%	84%	1.53E+08	4.07E+09	3843.00 pg/mL	1289.00 pg/mL	ALT in Sera (IU/L) 2 hours After 0.5 MPK Injection [9]: 136.67 IU/L; ALT in Sera (IU/L) 24 hours After 0.5 MPK Injection [9]: 152.67 IU/L; AST in Sera (IU/L) 2 hours After 0.5 MPK Injection [10]: 435.67 IU/L; AST in Sera (IU/L) 24 hours After 0.5 MPK Injection [10]: 431.67 IU/L; Footpad Thickness (24 h−0 h, mm) (BALB/C mice [11]): 0.63 mm
CCCCC/C=C\C/C=C\CCCCCCCCN(CCCCCC(=O)OCCCCCCCCCCC)CCOC(=O)NCc1ncc[nH]1 [Lipid 90, undecyl 6-((2-((((1H-imidazol-2-yl)methyl)carbamoyl)oxy)ethyl)((9Z,12Z)-octadeca-9,12-dien-1-yl)amino)hexanoate]	0.06	67.68	0.06127	65.54	1.34 mV	7.6 mV	87%	88%	1.27E+05	2.16E+05	8.50E+04	1.21E+05	95%	85%	24%	96%	8.80E+07	2.73E+07	153.05 pg/mL	33.08 pg/mL	ALT in Sera (IU/L) 2 hours After 0.5 MPK Injection [9]: 40.57 IU/L; ALT in Sera (IU/L) 24 hours After 0.5 MPK Injection [9]: 37.87 IU/L; AST in Sera (IU/L) 2 hours After 0.5 MPK Injection [10]: 77.50 IU/L; AST in Sera (IU/L) 24 hours After 0.5 MPK Injection [10]: 64.70 IU/L; Footpad Thickness (24 h−0 h, mm) (BALB/C mice [11]): 0.20 mm
CCCCCCCCC(CCCCCC)C(=O)OCCCCCCCCN(CCCCCCCCOC(=O)C(CCCCCC)CCCCCCCC)CCCOC(=O)NCCN1CCCCC1 (stereo not drawn) [Lipid 380]	0.1668	112.8	0.02507	88.83	−2.171 mV	−2.552 mV	92%	80.50%	2.95E+07	7.30E+07	2.22E+06	1.45E+06	89%	94%	86%	106%	4.50E+08	4.00E+08	1168.73 pg/mL	1025.26 pg/mL	ALT in Sera (IU/L) 2 hours After 0.5 MPK Injection [9]: 89.33 IU/L; ALT in Sera (IU/L) 24 hours After 0.5 MPK Injection [9]: 122.00 IU/L; AST in Sera (IU/L) 2 hours After 0.5 MPK Injection [10]: 196.33 IU/L; AST in Sera (IU/L) 24 hours After 0.5 MPK Injection [10]: 480.67 IU/L; Footpad Thickness (24 h−0 h, mm) (BALB/C mice [11]): 0.25 mm
CCCCC/C=C\C/C=C\CCCCCCCCN(CCCCCCCC(=O)OC(CCCCCCCC)CCCCCCCC)CCCOC(=O)NCCN(C)C [Lipid 270]	0.258	66.18	0.1592	101.7	3.201 mV	6.102 mV	95%	94.52%	9.88E+06	2.31E+07	9.33E+06	3.27E+06	95%	116%	120%	96%	9.90E+07	3.45E+08	4192.67 pg/mL	564.30 pg/mL	ALT in Sera (IU/L) 2 hours After 0.5 MPK Injection [9]: 253.00 IU/L; ALT in Sera (IU/L) 24 hours After 0.5 MPK Injection [9]: 79.00 IU/L; AST in Sera (IU/L) 2 hours After 0.5 MPK Injection [10]: 477.67 IU/L; AST in Sera (IU/L) 24 hours After 0.5 MPK Injection [10]: 220.00 IU/L; Footpad Thickness (24 h−0 h, mm) (BALB/C mice [11]): 0.65 mm
